Series [1] concerns SHSY5Y cells. The series can be described thus: in vitro. In kind it is cell-based. Particulars: incubated for 24 hours; FIG. 10. How it is done:
(§1) To determine the viability of cells within the hydrogels formed by L1 and L3, a Calcein-AM based toxicity assay was carried out. SHSY5Y cells were used for the toxicity assay. Cells were cultured in complete DMEM with 10% FBS, 1× Glutamax and 1% pen-strep antibiotic cocktail in a humidified incubator at 37° C. with 5% CO2. Cells cultured at 80% confluency in the culture vessel were used for the assay. SHSY5Y cells were washed with phosphate-buffered saline and treated with Accutase® to lift them of the culture vessel. Subsequently, it was neutralized with a double amount of complete media and centrifuged at 300 rpm for 5 minutes to obtain a cell pellet. Around 10,000 live cells (counted on a hemocytometer by Trypan blue exclusion) were added to 20 μL of each hydrogel and plated in a well of a 96 well polystyrene TC plate (with technical replicate=3). After 20 minutes, 100 μL complete media was added to each well. For control, a similar number of cells were added to a well without the hydrogel. 20 μL of phosphate buffer was added to each of the control wells. Cells were cultured for 24 hours before performing the Calcein-AM assay. Calcein-AM assay was carried out according to manufacturer's protocol. The viable cells were imaged with a wide-field fluorescence microscope and quantified.

Series [2] is described as follows: in vitro. Particulars: human. Type of series: cell-based. Here is the method: as §1
Series [3] can be described thus: Hydrogel formation from laminin derived peptides. Type of series: physicochemical. To be noted: 1 mg peptide in 200 μL 20 mM phosphate buffer pH 7.4, NaCl 50 mM to 150 mM, 24 hours. Here is the method: As an example of hydrogels based on self-aggregating peptides derived from non-amyloid proteins, laminin hydrogels were generated. Laminin was analyzed in silico to identify self-aggregating regions. After identification of such a region in the protein, its sequence was further modified to facilitate peptide self-assembly, and subsequently cross-beta sheet formation. Three peptides, L1-L3, were designed. The peptides were synthesized by a commercial vendor with 99% purity.
For forming the hydrogels, 1 mg peptide was mixed with 180 μL of 20 mM phosphate buffer, pH 7.4. The pH of this solution was raised to 10 by the gradual addition of 2N NaOH. NaCl was added to this solution in different quantities with a range from 50 mM to 150 mM final concentration. The pH of the solution was finally adjusted to 7.4 and the final volume of the solution was 200 μL. The solution was left undisturbed for 24 hours to facilitate the hydrogel formation.

Each structure is given as a SMILES string. Peptide text beside a SMILES is read from it.

The viability is the share of living cells, or the viability signal relative to a control.

On to `CC(C)C[C@H](NC(=O)[C@H](Cc1ccc(O)cc1)NC(=O)[C@@H](NC(=O)[C@H](CC(C)C)NC(=O)[C@H](CC(C)C)NC(=O)OCC1c2ccccc2-c2ccccc21)C(C)C)C(=O)O` [L3] (HELM PEPTIDE1{[O=C(OCC1c2ccccc2-c2ccccc21)[*:2]].L.L.V.Y.L}$$$$V2.0; C-terminus assumed), for which the “viability of SHSY5Y cells relative to control (in words)” value in series [1] is given as “high viability”. This compound displayed a viability at 24 h in series [2] of 87%. In series [3], the hydrogel formation result is given as “formed hydrogels”.

Turning to `CC(C)C[C@H](NC(=O)[C@H](Cc1ccc(O)cc1)NC(=O)[C@H](Cc1ccccc1)NC(=O)[C@H](CC(C)C)NC(=O)[C@H](CC(C)C)NC(=O)OCC1c2ccccc2-c2ccccc21)C(=O)O` [L1] (HELM PEPTIDE1{[O=C(OCC1c2ccccc2-c2ccccc21)[*:2]].L.L.F.Y.L}$$$$V2.0; C-terminus assumed), in series [1], the “viability of SHSY5Y cells relative to control (in words)” value is “high viability”. This compound also displayed a viability at 24 h in series [2] of 85%. The hydrogel formation entry in series [3] was “formed hydrogels”.

The values are drawn from patent publication US20220088275A1, “HYDROGELS, METHODS OF MAKING, AND METHODS OF USE” (Convalesce Inc., priority 2019, published 2022).
